Key:
MERTK = molecular target: T1, MERTK (Homo sapiens, UniProt Q12866); test: Kinobead competition assay; assay type: binding; conditions: only kinase among >190
T1 construct: endogenous in cells
T1 sequence (Q12866 21-999): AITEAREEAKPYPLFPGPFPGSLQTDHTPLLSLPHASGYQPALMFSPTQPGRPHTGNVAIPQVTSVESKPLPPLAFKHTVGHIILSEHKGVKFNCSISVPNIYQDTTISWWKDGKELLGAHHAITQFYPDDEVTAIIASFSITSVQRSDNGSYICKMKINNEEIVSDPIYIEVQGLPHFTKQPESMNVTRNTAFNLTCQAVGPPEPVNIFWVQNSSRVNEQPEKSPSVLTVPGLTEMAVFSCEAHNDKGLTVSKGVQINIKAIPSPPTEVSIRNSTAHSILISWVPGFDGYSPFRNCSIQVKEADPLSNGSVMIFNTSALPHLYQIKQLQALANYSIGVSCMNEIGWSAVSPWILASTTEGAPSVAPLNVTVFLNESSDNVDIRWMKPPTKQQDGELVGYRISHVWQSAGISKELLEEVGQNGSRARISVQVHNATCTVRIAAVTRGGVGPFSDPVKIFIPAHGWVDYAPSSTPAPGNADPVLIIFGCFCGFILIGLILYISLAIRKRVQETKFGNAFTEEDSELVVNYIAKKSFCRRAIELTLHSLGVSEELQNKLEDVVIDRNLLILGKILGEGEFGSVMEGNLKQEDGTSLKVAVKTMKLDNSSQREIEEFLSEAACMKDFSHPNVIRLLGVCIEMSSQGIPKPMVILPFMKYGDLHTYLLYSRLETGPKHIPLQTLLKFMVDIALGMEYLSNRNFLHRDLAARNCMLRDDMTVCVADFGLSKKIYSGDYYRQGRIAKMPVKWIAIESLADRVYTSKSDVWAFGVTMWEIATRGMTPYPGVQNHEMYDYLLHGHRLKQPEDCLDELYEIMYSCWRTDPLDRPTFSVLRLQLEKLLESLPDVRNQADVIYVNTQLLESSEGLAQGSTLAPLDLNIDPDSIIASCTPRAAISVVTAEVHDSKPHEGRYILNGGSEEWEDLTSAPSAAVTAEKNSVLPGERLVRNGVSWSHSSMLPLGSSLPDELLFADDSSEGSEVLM
From the text: (§1) The binding of KV-24 and KV-30 to the nucleotide-binding pocket raises the question of whether these compounds also target other nucleotide-binding proteins, such as kinases. To evaluate potential off-target effects, we performed Kinobead competition assays. This chemoproteomic approach is conceptually very similar to the one used here in that broad spectrum kinase inhibitors are immobilized on beads. […] PDE1C is a cAMP/cGMP nucleotide-binding protein that features two divalent metal cation cofactors. The hydroxamic acid moiety of KV-24 might chelate these metal cofactors, supporting the hypothesis that KV-24 binds the active site of PDE1C. […] With the help of our chemoproteomic platform, future structure–activity relationship (SAR) libraries based on the KV-24 and KV-30 scaffolds may be explored to improve selectivity toward either HINT1, kinase targets, or PDE1C. […]
(§2) LC-MS/MS. The different sample types were measured with different LC-MS/MS settings. MBLAC2 2-dose competition assays were measured with the Lumos1 setup, MBLAC2 9-dose competition assays were measured with the Lumos2 setup, and kinobeads assays were measured with the Eclipse setup.
(§3) Peptides were analyzed via LC–MS/MS on a Dionex Ultimate3000 nano HPLC coupled to either one of two Orbitrap Fusion Lumos mass spectrometers, or to an Orbitrap Eclipse mass spectrometer, operated via the Thermo Scientific Xcalibur software. […]

PDE1C = molecular target: T2, PDE1C (Homo sapiens, UniProt Q14123); test: Kinobead competition assay; conditions: dose-dependent binding; read-out: affinity PDE1C
T2 construct: endogenous in cells
From the text: as §1, §2, §3

T2 sequence (Q14123 whole entry): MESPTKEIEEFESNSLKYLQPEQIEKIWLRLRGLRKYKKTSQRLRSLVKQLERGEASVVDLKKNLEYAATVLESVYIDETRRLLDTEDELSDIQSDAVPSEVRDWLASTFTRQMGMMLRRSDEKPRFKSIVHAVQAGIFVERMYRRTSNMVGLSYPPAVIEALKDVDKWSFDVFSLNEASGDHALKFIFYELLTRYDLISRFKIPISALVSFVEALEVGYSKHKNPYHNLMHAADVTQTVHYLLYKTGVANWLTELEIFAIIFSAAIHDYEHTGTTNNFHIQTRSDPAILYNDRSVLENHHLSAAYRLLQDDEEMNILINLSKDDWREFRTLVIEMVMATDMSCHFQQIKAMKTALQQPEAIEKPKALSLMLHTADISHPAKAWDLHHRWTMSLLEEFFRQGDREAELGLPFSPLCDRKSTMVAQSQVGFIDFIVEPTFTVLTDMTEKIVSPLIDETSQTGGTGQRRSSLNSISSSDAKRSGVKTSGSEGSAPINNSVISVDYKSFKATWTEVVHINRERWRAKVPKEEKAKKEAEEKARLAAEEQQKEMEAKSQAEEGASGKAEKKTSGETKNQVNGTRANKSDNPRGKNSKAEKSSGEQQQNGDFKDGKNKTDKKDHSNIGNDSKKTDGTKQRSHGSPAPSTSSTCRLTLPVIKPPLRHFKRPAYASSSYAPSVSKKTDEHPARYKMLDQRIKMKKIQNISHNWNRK

Row | MERTK binding (MERTK) | Kd (PDE1C) [µM] | Structure (SMILES)
1 | potential binding |  | O=C(NO)c1ccc(-c2nc3ccccc3c3ccccc23)cc1 [KV-30]
2 |  | ~2 | O=C(NO)c1ccc(-c2nc3ccccc3n3cccc23)cc1 [KV-24]
